Test results taken from patent publication US11214542B2, “Histone demethylase inhibitors” (CELGENE QUANTICEL RESEARCH, INC., priority 2012, dated 2022).

Each molecule was assayed against JMJD2C (Homo sapiens (Human), UniProt Q9H3R0) (assay: JMJD2C TR-FRET in vitro enzyme inhibition assay). Details: 0.3 nM JMJD2C, H3K9me3 peptide, read-out: JMJ-D2C IC50.
Assay type: biochemical
Source text: This assay determines the ability of a test compound to inhibit Jarid1A, Jarid1B, and JMJD2C demethylase activity. Baculovirus expressed Jarid1A (GenBank Accession #NM_001042603, AA1-1090) was purchased from BPS Bioscience (Cat #50110). Baculovirus expressed Jarid1B (GenBank Accession #NM_006618, AA 2-751) was purchased from BPS Bioscience (Cat #50121) or custom made by MolecularThroughput. Baculovirus-expressed JMJD2C (GenBank Accession #BC143571, AA 2-372) was purchased from BPS Bioscience (Cat #50105).
The ability of test compounds to inhibit the activity of JMJD2C was determined in 384-well plate format under the following reaction conditions: 0.3 nM JMJD2C, 300 nM H3K9me3-biotin labeled peptide (Anaspec cat #64360), 2 μM alpha-ketoglutaric acid in assay buffer of 50 mM HEPES, pH7.3, 0.005% Brij35, 0.5 mM TCEP, 0.2 mg/ml BSA, 50 μM sodium L-ascorbate, and 2 μM ammonium iron(II) sulfate. Reaction product was determined quantitatively by TR-FRET after the addition of detection reagent Phycolink Streptavidin-allophycocyanin (Prozyme) and Europium-anti-di-methylated histone H3 lysine 9 (H3K9me2) antibody (PerkinElmer) in the presence of 5 mM EDTA in LANCE detection buffer (PerkinElmer) at a final concentration of 50 nM and 1 nM, respectively.
The assay reaction was initiated by the following: 2 μl of the mixture of 900 nM H3K9me3-biotin labeled peptide and 6 μM alpha-ketoglutaric acid with 2 μl of 11-point serial diluted inhibitor in 3% DMSO were added to each well of the plate, followed by the addition of 2 μl of 0.9 nM JMJD2C to initiate the reaction. The reaction mixture was incubated at room temperature for 30 min, and terminated by the addition of 6 μl of 5 mM EDTA in LANCE detection buffer containing 100 nM Phycolink Streptavidin-allophycocyanin and 2 nM Europium-anti-H3K9me2 antibody. Plates were read by EnVisionMultilabel Reader in TR-FRET mode (excitation at 320 nm, emission at 615 nm and 665 nm) after 1 hr incubation at rt. A ratio was calculated (665/615) for each well and fitted to determine inhibition constant (IC50).

Chain of JMJD2C (Q9H3R0 2-372): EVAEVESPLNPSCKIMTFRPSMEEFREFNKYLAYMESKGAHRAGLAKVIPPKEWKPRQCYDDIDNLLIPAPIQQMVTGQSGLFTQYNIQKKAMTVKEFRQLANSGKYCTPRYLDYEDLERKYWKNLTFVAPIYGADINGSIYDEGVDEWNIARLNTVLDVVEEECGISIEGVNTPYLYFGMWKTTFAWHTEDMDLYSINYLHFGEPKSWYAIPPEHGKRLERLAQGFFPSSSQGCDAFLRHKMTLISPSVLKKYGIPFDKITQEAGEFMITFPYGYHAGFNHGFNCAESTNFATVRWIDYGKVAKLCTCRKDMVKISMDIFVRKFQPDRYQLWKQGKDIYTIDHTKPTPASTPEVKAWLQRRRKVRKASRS

| Molecule | IC50 [µM] |
| --- | --- |
| 3-{[(6-chloro-1-hydroxy- 1,2,3,4-tetrahydronaphthalen- 1-yl)methyl]amino}pyridine- 4-carboxylic acid [Example 67] | 0.1 to 1 |
| O=C(O)c1ccncc1NCC1CCOc2cc(F)ccc21 (stereo not drawn) [Example 65, 3-{[(7-fluoro-3,4-dihydro-2H-chromen-4-yl)methyl]amino}-pyridine-4-carhoxylic acid] | ≤ 0.1 |
| 3-{[(6-chloro-1,2,3,4-tetra- hydronaphthalen-1-yl)methyl]- amino}pyridine-4-carboxylic acid [Example 68] | 0.1 to 1 |
